Data: patent publication US20230128907A1, “PARIS POLYPHYLLA SAPONIN EXTRACT WITH ACTIVITY AGAINST MULTIDRUG-RESISTANT BACTERIA AND PREPARATION AND USE THEREOF” (XI'AN KANGYUANSHENG BIOMEDICAL TECHNOLOGY CO., LTD., priority 2021, published 2023)
Where a name gives a salt, the structure may show the parent alone.

Assays:
Format in all cases: cell-based
[1] = tested on: Multidrug-resistant Staphylococcus aureus 222; test: MIC by liquid micro-dilution method; design: key: “+” means bacterial growth; “−” means no bacterial growth
Experimental: (§1) The minimum inhibitory concentration (MIC) of the extract was determined by liquid microdilution method.
(§2) Twenty-four hours before the experiment, the test strains preserved in low temperature were taken out and placed at room temperature. A small amount of bacterial liquid was drawn with a pipette, inoculated into the sterilized and cooled growth medium, and placed in a 35° C. incubator for 24 hours. A pipette was used to transfer a small amount of activated bacterial colonies to a sterilized dry test tube, diluted with medium to a turbidity similar to that of a 0.5 McFarland turbidimetric tube (1.5×10^8 CFU/mL), and then diluted with medium by […], so that the bacterial suspension concentration reaches 1.0×10^6 CFU/mL (diluted twice before being added to the wells, and the final bacterial concentration in the system being 5×10^5 CFU/mL) for MIC measurement.
(§3) In a sterile 96-well flat-bottom microculture plate, 100 μL of […] positive control solution was added to the No. […] 2-11 well, respectively. No. 12 well was solvent.
(§4) The plate was incubated in a 30° C. incubator for 24 hours, the experimental results were observed, and the minimum inhibitory concentration (MIC) values were determined. […] The difference was counted as “≤[…].” The above experiments were performed in parallel for 3 times. When the MIC value could be accurately repeated or only differed by one concentration, it was accepted. The higher concentration was used as the MIC value. When the MIC value differed by more than two concentrations, the experiment was repeated until it met the until requested.

[2] = tested on: Multidrug-resistant Staphylococcus aureus 222; test: In vitro antibacterial activity of combination of extract and antibacterial drug (MIC, FIC)
Escherichia coli [3] = test: MIC by liquid micro-dilution method; design: key: “+” means bacterial growth; “−” means no bacterial growth
Experimental: as §1, §2, §3, §4

Escherichia coli [4] = test: In vitro antibacterial activity of combination of extract and antibacterial drug (MIC, FIC)
Salmonella [5] = test: MIC by liquid micro-dilution method; design: key: “+” means bacterial growth; “−” means no bacterial growth
Experimental: as §1, §2, §3, §4

Salmonella [6] = test: In vitro antibacterial activity of combination of extract and antibacterial drug (MIC, FIC)
[7] = tested on: Multidrug-resistant Pseudomonas aeruginosa 174; test: MIC by liquid micro-dilution method; design: key: “+” means bacterial growth; “−” means no bacterial growth
Experimental: as §1, §2, §3, §4

[8] = tested on: Multidrug-resistant Pseudomonas aeruginosa 174; test: In vitro antibacterial activity of combination of extract and antibacterial drug (MIC, FIC)
[9] = Table 4, positive control 128 μg/mL (Table 3)
[10] = Table 6, positive control 128 μg/mL (Table 3)
[11] = Table 8, positive control 128 μg/mL (Table 3)
[12] = drug MIC in combination with the Paris Polyphylla Saponin Extract
[13] = Table 7, positive control 128 μg/mL (Table 3)

Cc1nnc(SCC2=C(C(=O)O)N3C(=O)[C@@H](NC(=O)Cn4cnnn4)[C@H]3SC2)s1 [Cefazolin sodium]
bacterial growth [1, 9]: − | bacterial growth [1, 10]: − | bacterial growth [1, 11]: − | Combination Treatment MIC Combination [2, 12]: 16 µg/mL | Combination Treatment MIC Single ([2]; drug alone): 128 µg/mL

CO/N=C(\C(=O)N[C@@H]1C(=O)N2C(C(=O)O)=C(CSc3nc(=O)c(=O)[nH]n3C)CS[C@H]12)c1csc(N)n1 [Ceftriaxone sodium]
bacterial growth (Escherichia coli [3]; [9]): − | bacterial growth (Escherichia coli [3]; [10]): − | bacterial growth (Escherichia coli [3]; [13]): − | bacterial growth (Escherichia coli [3]; [11]): − | Combination Treatment MIC Combination (Escherichia coli [4]; [12]): 0.5 µg/mL | Combination Treatment MIC Single (Escherichia coli [4]; drug alone): 2 µg/mL

C[C@H]1COc2c(N3CCN(C)CC3)c(F)cc3c(=O)c(C(=O)O)cn1c23 [Levofloxacin hydrochloride]
bacterial growth (Salmonella [5]; [9]): − | bacterial growth (Salmonella [5]; [10]): − | bacterial growth (Salmonella [5]; [13]): − | bacterial growth (Salmonella [5]; [11]): − | Combination Treatment MIC Combination (Salmonella [6]; [12]): 2 µg/mL | Combination Treatment MIC Single (Salmonella [6]; drug alone): 4 µg/mL

CC1CCC2(OC1)OC1CC3C4CC=C5CC(OC6OC(CO)C(OC7OC(C)C(OC8OC(C)C(O)C(O)C8O)C(O)C7O)C(O)C6OC6OC(C)C(O)C(O)C6O)CCC5(C)C4CCC3(C)C1C2C (stereo not drawn) [Polyphyllin II]
bacterial growth ([1]; Table 6, 0.25 μg/mL): + | bacterial growth ([1]; Table 6, 0.5 μg/mL): + | bacterial growth ([1]; Table 6, 1 μg/mL): + | bacterial growth ([1]; Table 6, 2 μg/mL): + | bacterial growth ([1]; Table 6, 4 μg/mL): + | bacterial growth ([1]; Table 6, 8 μg/mL): + | bacterial growth ([1]; Table 6, 16 μg/mL): + | bacterial growth ([1]; Table 6, 32 μg/mL): + | bacterial growth ([1]; Table 6, 64 μg/mL): + | bacterial growth ([1]; Table 6, 128 μg/mL): + | bacterial growth ([1]; Table 6, 256 μg/mL): + | bacterial growth ([1]; Table 6, 512 μg/mL): + | bacterial growth ([1]; Table 6, 1024 μg/mL): + | bacterial growth (Salmonella [5]; Table 6, 0.25 μg/mL): + | bacterial growth (Salmonella [5]; Table 6, 0.5 μg/mL): + | bacterial growth (Salmonella [5]; Table 6, 1 μg/mL): + | bacterial growth (Salmonella [5]; Table 6, 2 μg/mL): + | bacterial growth (Salmonella [5]; Table 6, 4 μg/mL): + | bacterial growth (Salmonella [5]; Table 6, 8 μg/mL): + | bacterial growth (Salmonella [5]; Table 6, 16 μg/mL): + | bacterial growth (Salmonella [5]; Table 6, 32 μg/mL): + | bacterial growth (Salmonella [5]; Table 6, 64 μg/mL): + | bacterial growth (Salmonella [5]; Table 6, 128 μg/mL): + | bacterial growth (Salmonella [5]; Table 6, 256 μg/mL): + | bacterial growth (Salmonella [5]; Table 6, 512 μg/mL): + | bacterial growth (Salmonella [5]; Table 6, 1024 μg/mL): + | bacterial growth (Escherichia coli [3]; Table 6, 0.25 μg/mL): + | bacterial growth (Escherichia coli [3]; Table 6, 0.5 μg/mL): + | bacterial growth (Escherichia coli [3]; Table 6, 1 μg/mL): + | bacterial growth (Escherichia coli [3]; Table 6, 2 μg/mL): + | bacterial growth (Escherichia coli [3]; Table 6, 4 μg/mL): + | bacterial growth (Escherichia coli [3]; Table 6, 8 μg/mL): + | bacterial growth (Escherichia coli [3]; Table 6, 16 μg/mL): + | bacterial growth (Escherichia coli [3]; Table 6, 32 μg/mL): + | bacterial growth (Escherichia coli [3]; Table 6, 64 μg/mL): + | bacterial growth (Escherichia coli [3]; Table 6, 128 μg/mL): + | bacterial growth (Escherichia coli [3]; Table 6, 256 μg/mL): + | bacterial growth (Escherichia coli [3]; Table 6, 512 μg/mL): + | bacterial growth (Escherichia coli [3]; Table 6, 1024 μg/mL): +

CC1CCC2(OC1)OC1CC3C4CC=C5CC(OC6OC(CO)C(OC7OC(C)C(OC8OC(C)C(O)C(O)C8O)C(O)C7O)C(O)C6OC6OC(C)C(O)C(O)C6O)CCC5(C)C4CCC3(C)C1(O)C2C (stereo not drawn) [Polyphyllin VII]
bacterial growth ([1]; Table 8, 0.25 μg/mL): + | bacterial growth ([1]; Table 8, 0.5 μg/mL): + | bacterial growth ([1]; Table 8, 1 μg/mL): + | bacterial growth ([1]; Table 8, 2 μg/mL): + | bacterial growth ([1]; Table 8, 4 μg/mL): + | bacterial growth ([1]; Table 8, 8 μg/mL): + | bacterial growth ([1]; Table 8, 16 μg/mL): + | bacterial growth ([1]; Table 8, 32 μg/mL): + | bacterial growth ([1]; Table 8, 64 μg/mL): + | bacterial growth ([1]; Table 8, 128 μg/mL): + | bacterial growth ([1]; Table 8, 256 μg/mL): + | bacterial growth ([1]; Table 8, 512 μg/mL): + | bacterial growth ([1]; Table 8, 1024 μg/mL): + | bacterial growth (Salmonella [5]; Table 8, 0.25 μg/mL): + | bacterial growth (Salmonella [5]; Table 8, 0.5 μg/mL): + | bacterial growth (Salmonella [5]; Table 8, 1 μg/mL): + | bacterial growth (Salmonella [5]; Table 8, 2 μg/mL): + | bacterial growth (Salmonella [5]; Table 8, 4 μg/mL): + | bacterial growth (Salmonella [5]; Table 8, 8 μg/mL): + | bacterial growth (Salmonella [5]; Table 8, 16 μg/mL): + | bacterial growth (Salmonella [5]; Table 8, 32 μg/mL): + | bacterial growth (Salmonella [5]; Table 8, 64 μg/mL): + | bacterial growth (Salmonella [5]; Table 8, 128 μg/mL): + | bacterial growth (Salmonella [5]; Table 8, 256 μg/mL): + | bacterial growth (Salmonella [5]; Table 8, 512 μg/mL): + | bacterial growth (Salmonella [5]; Table 8, 1024 μg/mL): + | bacterial growth ([7]; Table 8, 0.25 μg/mL): + | bacterial growth ([7]; Table 8, 0.5 μg/mL): + | bacterial growth ([7]; Table 8, 1 μg/mL): + | bacterial growth ([7]; Table 8, 2 μg/mL): + | bacterial growth ([7]; Table 8, 4 μg/mL): + | bacterial growth ([7]; Table 8, 8 μg/mL): + | bacterial growth ([7]; Table 8, 16 μg/mL): + | bacterial growth ([7]; Table 8, 32 μg/mL): + | bacterial growth ([7]; Table 8, 64 μg/mL): + | bacterial growth ([7]; Table 8, 128 μg/mL): + | bacterial growth ([7]; Table 8, 256 μg/mL): + | bacterial growth ([7]; Table 8, 512 μg/mL): + | bacterial growth ([7]; Table 8, 1024 μg/mL): + | bacterial growth (Escherichia coli [3]; Table 8, 0.25 μg/mL): + | bacterial growth (Escherichia coli [3]; Table 8, 0.5 μg/mL): + | bacterial growth (Escherichia coli [3]; Table 8, 1 μg/mL): + | bacterial growth (Escherichia coli [3]; Table 8, 2 μg/mL): + | bacterial growth (Escherichia coli [3]; Table 8, 4 μg/mL): + | bacterial growth (Escherichia coli [3]; Table 8, 8 μg/mL): + | bacterial growth (Escherichia coli [3]; Table 8, 16 μg/mL): + | bacterial growth (Escherichia coli [3]; Table 8, 32 μg/mL): + | bacterial growth (Escherichia coli [3]; Table 8, 64 μg/mL): + | bacterial growth (Escherichia coli [3]; Table 8, 128 μg/mL): + | bacterial growth (Escherichia coli [3]; Table 8, 256 μg/mL): + | bacterial growth (Escherichia coli [3]; Table 8, 512 μg/mL): + | bacterial growth (Escherichia coli [3]; Table 8, 1024 μg/mL): +

C[C@@H]1CC[C@@]2(OC1)O[C@H]1C[C@H]3[C@@H]4CC=C5C[C@@H](O[C@@H]6O[C@H](CO)[C@@H](O)[C@H](O)[C@H]6O[C@@H]6O[C@@H](C)[C@H](O)[C@@H](O)[C@H]6O)CC[C@]5(C)[C@H]4CC[C@]3(C)[C@@]1(O)[C@@H]2C [Polyphyllin VI]
bacterial growth (Salmonella [5]; Table 7, Conc. 0.25 μg/mL): + | bacterial growth (Salmonella [5]; Table 7, Conc. 0.5 μg/mL): + | bacterial growth (Salmonella [5]; Table 7, Conc. 1 μg/mL): + | bacterial growth (Salmonella [5]; Table 7, Conc. 2 μg/mL): + | bacterial growth (Salmonella [5]; Table 7, Conc. 4 μg/mL): + | bacterial growth (Salmonella [5]; Table 7, Conc. 8 μg/mL): + | bacterial growth (Salmonella [5]; Table 7, Conc. 16 μg/mL): + | bacterial growth (Salmonella [5]; Table 7, Conc. 32 μg/mL): + | bacterial growth (Salmonella [5]; Table 7, Conc. 64 μg/mL): + | bacterial growth (Salmonella [5]; Table 7, Conc. 128 μg/mL): + | bacterial growth (Escherichia coli [3]; Table 7, Conc. 0.25 μg/mL): + | bacterial growth (Escherichia coli [3]; Table 7, Conc. 0.5 μg/mL): + | bacterial growth (Escherichia coli [3]; Table 7, Conc. 1 μg/mL): + | bacterial growth (Escherichia coli [3]; Table 7, Conc. 2 μg/mL): + | bacterial growth (Escherichia coli [3]; Table 7, Conc. 4 μg/mL): + | bacterial growth (Escherichia coli [3]; Table 7, Conc. 8 μg/mL): + | bacterial growth (Escherichia coli [3]; Table 7, Conc. 16 μg/mL): + | bacterial growth (Escherichia coli [3]; Table 7, Conc. 32 μg/mL): + | bacterial growth (Escherichia coli [3]; Table 7, Conc. 64 μg/mL): + | bacterial growth (Escherichia coli [3]; Table 7, Conc. 128 μg/mL): +

Gentamicin sulfate
bacterial growth [7, 9]: − | bacterial growth [7, 11]: − | Combination Treatment MIC Combination [8, 12]: 0.125 µg/mL | Combination Treatment MIC Single ([8]; drug alone): 0.125 µg/mL
